Legend:
[1] = system: P. falciparum male gametocytes; assay: P. falciparum Dual Gamete Formation Assay (PfDGFA), male readout (exflagellation); assay type: cell-based, Plasmodium falciparum NF54; details: for IC50: this study, read-out: Pf DGFA IC50 MALE; for Average inhibition male (%): average of replicates; for % inhibition male (individual replicates) R1: replicate R1; for % inhibition male (individual replicates) R3: replicate R3; for % inhibition male (individual replicates) R4: replicate R4
In short: (§1)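 Male and female gamete formation were quantified by microscopy image analysis following 24 h incubation of mature NF54 gametocytes with compound and activation at 28°C with xanthurenic acid.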

[2] = system: P. falciparum female gametocytes; assay: P. falciparum Dual Gamete Formation Assay (PfDGFA), female readout (Pfs25-positive female gametes); assay type: cell-based, Plasmodium falciparum NF54; details: for IC50: this study, read-out: Pf DGFA IC50 FEM; for Average inhibition female (%): average of replicates; for % inhibition female (individual replicates) R1: replicate R1; for % inhibition female (individual replicates) R3: replicate R3; for % inhibition female (individual replicates) R4: replicate R4
In short: as §1

HepG2 cells = assay: HepG2 cytotoxicity counter-screen; details: for Mean TOX: mean of the HepG2 TOX50 values; for DGFA Tox50 HepG2: HepG2 value reported with the DGFA screen
[3] = 2µM, 24h preincubation with gametocytes prior to induction of gametogenesis
[4] = 2µM, 24h preincubation, number of replicates with >50% inhibition in the male readout
[5] = 2µM, 24h preincubation, number of replicates with >50% inhibition in the female readout
[6] = PfDGFA at 2µM, 24h preincubation with gametocytes prior to induction of gametogenesis
[7] = PfDGFA at 2µM, 24h preincubation
[8] = 2µM, 24h preincubation with gametocytes

C=CCNc1cc(-c2ccccn2)nc(-c2ccccn2)n1 [TC01]
Cytotox ratio Pf Male [1]: 13.8 | IC50 [1]: 0.91 µM | Cytotox ratio Pf Female [2]: 2.6 | IC50 [2]: 4.89 µM | Mean TOX (HepG2 cells): 12.58 µM

c1ccc2[nH]c(CN(Cc3nc4ccccc4[nH]3)Cc3nc4ccccc4[nH]3)nc2c1 [TC03]
Cytotox ratio Pf Male [1]: 14.8 | IC50 [1]: 6.75 µM | Cytotox ratio Pf Female [2]: 10.0 | DGFA Tox50 HepG2 (HepG2 cells): 100 µM | Mean TOX (HepG2 cells): 100.00 µM

FC(F)(F)c1cccc(NC(=S)NN=Cc2ccccn2)c1 [TC06]
Cytotox ratio Pf Male [1]: 142.9 | IC50 [1]: 0.7 µM | Cytotox ratio Pf Female [2]: 142.9 | IC50 [2]: 0.7 µM | DGFA Tox50 HepG2 (HepG2 cells): 100 µM | Mean TOX (HepG2 cells): 100.00 µM

O=C(Cc1cccc(O)c1)NCC(Cc1ccc(O)cc1)c1ccccc1 (stereo not drawn) [TC08]
Cytotox ratio Pf Male [1]: 58.1 | IC50 [1]: 1.72 µM | Cytotox ratio Pf Female [2]: 10.0 | DGFA Tox50 HepG2 (HepG2 cells): 100 µM | Mean TOX (HepG2 cells): 100.00 µM

N=C(N)NCCN(Cc1ccccc1)c1ccc(Cl)cc1 [TC09]
Cytotox ratio Pf Male [1]: 72.7 | IC50 [1]: 0.67 µM | Cytotox ratio Pf Female [2]: 7.5 | IC50 [2]: 6.5 µM | Mean TOX (HepG2 cells): 48.68 µM

O=C(NC1CCN(Cc2ccccc2)CC1)c1cc(C(=O)NC2CCN(Cc3ccccc3)CC2)cc(C(=O)NC2CCN(Cc3ccccc3)CC2)c1 [TC20]
Cytotox ratio Pf Male [1]: 13.0 | IC50 [1]: 7.71 µM | Cytotox ratio Pf Female [2]: 10.0 | DGFA Tox50 HepG2 (HepG2 cells): 100 µM | Mean TOX (HepG2 cells): 100.00 µM

CC(C)S(=O)(=O)N1CCN(Cc2ccc3c(c2)nc(NC(=O)c2ccsc2)n3C[C@H](O)c2ccccc2)CC1 [TC25]
Cytotox ratio Pf Male [1]: 20.7 | IC50 [1]: 0.41 µM | Cytotox ratio Pf Female [2]: 0.848 | Mean TOX (HepG2 cells): 8.48 µM

Oc1cccc(CNCCCN(Cc2ccccc2)c2ccccc2)c1 [TC30]
Cytotox ratio Pf Male [1]: 13.1 | IC50 [1]: 1.06 µM | Cytotox ratio Pf Female [2]: 1.8 | IC50 [2]: 7.74 µM | Mean TOX (HepG2 cells): 13.84 µM

Fc1ccc2[nH]c(-c3ccc(-c4ccc(CNCCN5CCNCC5)cc4)cc3)nc2c1.O=C(O)C(F)(F)F [TC31]
Cytotox ratio Pf Male [1]: 12.1 | IC50 [1]: 2.39 µM | Cytotox ratio Pf Female [2]: 2.9 | Mean TOX (HepG2 cells): 28.84 µM

COc1cc2c(cc1S(=O)(=O)c1ccc(COc3ccc(C(F)(F)F)cc3)cc1)CNCC2.Cl [TC36]
Cytotox ratio Pf Male [1]: 12.0 | IC50 [1]: 1.38 µM | Cytotox ratio Pf Female [2]: 1.7 | Mean TOX (HepG2 cells): 16.60 µM

O=C(c1ccc(-c2cnc3[nH]cc(-c4ccc(C(=O)N5CCOCC5)cc4)c3c2)cc1)N1CCOCC1 [TC43]
Cytotox ratio Pf Male [1]: 65.9 | IC50 [1]: 0.44 µM | Cytotox ratio Pf Female [2]: 2.9 | Mean TOX (HepG2 cells): 28.99 µM

CN1CCC(NCc2ccc(-c3cnc(NCc4ccccc4)nc3)cc2)CC1.O=C(O)C(F)(F)F [TC47]
Cytotox ratio Pf Male [1]: 11.6 | IC50 [1]: 0.96 µM | Cytotox ratio Pf Female [2]: 1.7 | IC50 [2]: 6.57 µM | Mean TOX (HepG2 cells): 11.10 µM

Cc1cccc(Nc2nc(NCCCCN)nc3cc[nH]c(=O)c23)c1.O=C(O)C(F)(F)F [TC51]
Cytotox ratio Pf Male [1]: 75.4 | IC50 [1]: 0.38 µM | Cytotox ratio Pf Female [2]: 2.9 | Mean TOX (HepG2 cells): 28.66 µM

CCCCNS(=O)(=O)c1ccc(NC(=O)c2cc([N+](=O)[O-])ccc2Cl)cc1 [TC52]
Cytotox ratio Pf Male [1]: 270.3 | IC50 [1]: 0.37 µM | Cytotox ratio Pf Female [2]: 13.2 | IC50 [2]: 7.56 µM | DGFA Tox50 HepG2 (HepG2 cells): 100 µM | Mean TOX (HepG2 cells): 100.00 µM

Cc1ccc(C)c(S(=O)(=O)NCC2CCN(Cc3ccc(O)cc3)CC2)c1.O=C(O)C(F)(F)F [TC53]
Cytotox ratio Pf Male [1]: 54.7 | IC50 [1]: 1.49 µM | Cytotox ratio Pf Female [2]: 8.2 | Mean TOX (HepG2 cells): 81.55 µM

CN1CCN(c2ccc(Nc3c4ccccc4nc4ccccc34)cc2)CC1 [TC57]
Cytotox ratio Pf Male [1]: 45.2 | IC50 [1]: 0.59 µM | Cytotox ratio Pf Female [2]: 3.0 | IC50 [2]: 8.84 µM | Mean TOX (HepG2 cells): 26.65 µM

Cl.Clc1ccc(C2CCN(CCCOc3ccc4c(c3)CCNCC4)CC2)cc1 [TCMDC-141782]
Average inhibition male (%) [1, 3]: 47.0% | % inhibition male (individual replicates) R1 [1, 3]: 45.1% | % inhibition male (individual replicates) R3 [1, 3]: 27.8% | % inhibition male (individual replicates) R4 [1, 3]: 64.2% | HitlevelM [1, 4]: 2 | Average inhibition female (%) [2, 3]: 28.4% | % inhibition female (individual replicates) R1 [2, 3]: 14.5% | % inhibition female (individual replicates) R3 [2, 3]: 2.3% | % inhibition female (individual replicates) R4 [2, 3]: 70.0% | HitlevelF [2, 5]: 1

Cc1cc(F)ccc1-c1nc(NCCCNCCc2ccccc2)nc2c1ccc(=O)n2-c1c(F)cccc1F.O=C(O)C(F)(F)F [TCMDC-141804]
Average inhibition male (%) [1, 3]: 11.7% | % inhibition male (individual replicates) R1 [1, 3]: 17.7% | % inhibition male (individual replicates) R3 [1, 3]: -28.8% | % inhibition male (individual replicates) R4 [1, 3]: 37.6% | HitlevelM [1, 4]: 0 | Average inhibition female (%) [2, 3]: 33.0% | % inhibition female (individual replicates) R1 [2, 3]: 27.9% | % inhibition female (individual replicates) R3 [2, 3]: 6.6% | % inhibition female (individual replicates) R4 [2, 3]: 62.0% | HitlevelF [2, 5]: 1

Cc1c(Cn2ncc(N3CCC(N)CC3)c(Cl)c2=O)cccc1NC(=O)Nc1ccc(-c2ccccc2)cc1.O=C(O)C(F)(F)F [TCMDC-141931]
Average inhibition male (%) [1, 3]: 36.5% | % inhibition male (individual replicates) R1 [1, 3]: 42.7% | % inhibition male (individual replicates) R3 [1, 3]: 3.4% | % inhibition male (individual replicates) R4 [1, 3]: 40.2% | HitlevelM [1, 4]: 1 | Average inhibition female (%) [2, 3]: 48.9% | % inhibition female (individual replicates) R1 [2, 3]: 32.2% | % inhibition female (individual replicates) R3 [2, 3]: 19.7% | % inhibition female (individual replicates) R4 [2, 3]: 64.5% | HitlevelF [2, 5]: 2

Nc1nc(N)c2cc(CNc3ccc(Cl)c(Cl)c3)ccc2n1 [TCMDC-141974]
% inhibition male (individual replicates) R1 [1, 6]: 19.3% | % inhibition male (individual replicates) R3 [1, 6]: 26.8% | % inhibition male (individual replicates) R4 [1, 6]: 9.5% | Average inhibition male (%) [1, 7]: 20.3% | % inhibition female (individual replicates) R1 [2, 6]: 1.5% | % inhibition female (individual replicates) R3 [2, 6]: -5.9% | % inhibition female (individual replicates) R4 [2, 6]: 0.5% | Average inhibition female (%) [2, 7]: -1.4%

COc1ccc2c(c1)nc(CNC(=N)N)n2Cc1ccc(Cl)cc1.Cl [TCMDC-142042]
Average inhibition male (%) [1, 3]: -2.9% | % inhibition male (individual replicates) R1 [1, 3]: -15.5% | % inhibition male (individual replicates) R3 [1, 3]: -14.5% | % inhibition male (individual replicates) R4 [1, 3]: 30.2% | HitlevelM ([1]; 2µM, 24h preincubation, hits selected on >50% inhibition in the male readout across replicates): 0 | Activity ([1]; PfDGFA at 2µM, 24h preincubation, hit = >50% inhibition in male or female readout in at least 3 replicates, 0 = no class assigned): 0 | Average inhibition female (%) [2, 3]: 8.7% | % inhibition female (individual replicates) R1 [2, 3]: 5.3% | % inhibition female (individual replicates) R3 [2, 3]: -8.2% | % inhibition female (individual replicates) R4 [2, 3]: 2.2% | HitlevelF ([2]; 2µM, 24h preincubation, hits selected on >50% inhibition in the female readout across replicates): 0

Cc1ccc2nc(C)cc(N/N=C/c3ccc([N+](=O)[O-])cc3)c2c1 [TCMDC-142070]
% inhibition male (individual replicates) R1 [1, 6]: -12.6% | % inhibition male (individual replicates) R3 [1, 6]: -7.9% | % inhibition male (individual replicates) R4 [1, 6]: 12.9% | Average inhibition male (%) [1, 7]: -0.848% | % inhibition female (individual replicates) R1 [2, 6]: 9.6% | % inhibition female (individual replicates) R3 [2, 6]: -4.2% | % inhibition female (individual replicates) R4 [2, 6]: -9.4% | Average inhibition female (%) [2, 7]: 1.3%

CC1(C)N=C(N)N=C(N)N1c1ccc(Cl)c(Cl)c1.Cl [TCMDC-142180]
% inhibition male (individual replicates) R1 [1, 6]: 8.4% | % inhibition male (individual replicates) R4 [1, 6]: -27.5% | Average inhibition male (%) [1, 7]: 6.9% | % inhibition female (individual replicates) R1 [2, 6]: -5.5% | % inhibition female (individual replicates) R3 [2, 6]: -6.4% | % inhibition female (individual replicates) R4 [2, 6]: 1.4% | Average inhibition female (%) [2, 7]: -4.7%

CCOc1ccc2c(=NN=Cc3ccc(OC)c(OC)c3)cc(C)[nH]c2c1 [TCMDC-142206]
Average inhibition male (%) [1, 3]: 11.1% | % inhibition male (individual replicates) R1 [1, 3]: 9.5% | % inhibition male (individual replicates) R3 [1, 3]: 6.4% | % inhibition male (individual replicates) R4 [1, 3]: 28.2% | HitlevelM [1, 4]: 0 | Average inhibition female (%) [2, 3]: 22.4% | % inhibition female (individual replicates) R1 [2, 3]: 27.0% | % inhibition female (individual replicates) R3 [2, 3]: -3.4% | % inhibition female (individual replicates) R4 [2, 3]: 40.7% | HitlevelF [2, 5]: 0

Cl.Nc1c(I)cc(C(=O)Nc2ccc3nc4c(c(N)c3c2)CCCC4)cc1I [TCMDC-142289]
Average inhibition male (%) [1, 8]: 92.1% | % inhibition male (individual replicates) R1 [1, 8]: 89.6% | % inhibition male (individual replicates) R4 [1, 8]: 96.1% | Average inhibition female (%) [2, 8]: 49.6% | % inhibition female (individual replicates) R1 [2, 8]: 51.7% | % inhibition female (individual replicates) R3 [2, 8]: 34.7% | % inhibition female (individual replicates) R4 [2, 8]: 48.7%

O=c1c(NCCCN(Cc2ccc(F)cc2)c2ccccn2)c(NCc2ccncc2)c1=O [TCMDC-142310]
% inhibition male (individual replicates) R1 [1, 6]: -3.0% | % inhibition male (individual replicates) R3 [1, 6]: -19.8% | % inhibition male (individual replicates) R4 [1, 6]: -2.5% | Average inhibition male (%) [1, 7]: -8.8% | % inhibition female (individual replicates) R1 [2, 6]: 6.5% | % inhibition female (individual replicates) R3 [2, 6]: -28.2% | % inhibition female (individual replicates) R4 [2, 6]: -7.1% | Average inhibition female (%) [2, 7]: -7.2%

— publication PMC10584170, “Machine learning-based phenotypic imaging to characterise the targetable biology of Plasmodium falciparum male gametocytes for the development of transmission-blocking antimalarials” (PLOS Pathogens, 2023)
